Test results taken from patent US20190060261A1, “ACTIVE COMBINATIONS OF PERILLIC ACID AND ACTIVITY ENHANCING SUBSTANCES” (B.R.A.I.N BIOTECHNOLOGY RESEARCH AND INFORMATION NETWORK AG, priority 2016, published 2019).
Values after ≈ are worked out from the molar mass of the structure shown. Where two headings read alike, the source gives them in different places.

Key:
[1] = system: Pseudomonas aeruginosa ATCC 9027; experiment: Minimal inhibition concentration (MIC), microdilution method; type: cell-based; details: Mueller-Hinton II Bouillon, 25 mM MES-buffer, 37° C., no growth after 24 h and 72 h; for MIC: Pseudomonas aeruginosa, ATCC9027, read-out: MIC [A to D] Pseudomonas aeruginosa
Description: (§1) The antimicrobial activity of different substances was examined and compared to perillic acid in vitro using the microdilution method adapted from DIN EN ISO 20776-1:2006. Besides perillic acid and its sodium salt, other organic acids like levulinic acid, p-anisic acid, benzoic acid and sorbic acid as well as alkane-1,2-diols such as hexane-1,2-diol, octane-1,2-diol and decane-1,2-diol were studied. Additionally, the commonly used preservatives 2-phenoxyethanol, 2-phenylethanol and benzyl alcohol were investigated.
(§2) All experiments were done in 96-well plates in a final volume of 200 μL. Test solutions of the investigated compounds were prepared in 25 mM buffered water. The procedure was conducted as following: 4 μL of the particular stock solution were mixed with 196 μL culture medium containing a defined inoculum of the respective target strain. Sterile controls (not inoculated) and growth controls (buffer instead of compound added) were performed. All compound concentrations were tested in triplicate for several times. The following contamination germs were examined: Escherichia coli ATCC 8739, Pseudomonas aeruginosa ATCC 9027, Stapyhlococcus aureus ATCC®6538, Bacillus subtilis subsp. spizizenii ATCC®6633, Candida albicans ATCC®10231 and Aspergillus brasiliensis ATCC®16404. The strains were cultivated either in Mueller-Hinton II Bouillon (Escherichia coli, Pseudomonas aeruginosa, Staphylococcus aureus), in yeast peptone dextrose (Bacillus subtilis, Candida albicans) or in potato dextrose medium (Aspergillus brasiliensis). All culture media were buffered with 25 mM MES-buffer. For compound testing, the plates were incubated at 37° C. for Escherichia coli, Pseudomonas aeruginosa and Staphylococcus aureus, at 28° C. for Bacillus subtilis and Candida albicans, and at 25° C. for Aspergillus brasiliensis. Plates were evaluated after 24 h and 72 h, respectively. The minimal inhibitory concentration (MIC) is defined as the concentration where no microbial growth was observed after 24 h and 72 h incubation at the specified temperature.
(§3) MIC-values are given according to the following letter code.

[2] = system: Bacillus subtilis subsp. spizizenii ATCC®6633; experiment: as above; type: cell-based; details: for MIC: Bacillus subtilis
Description: as §1, §2, §3

[3] = system: Aspergillus brasiliensis ATCC®16404; experiment: as above; type: cell-based; details: potato dextrose medium, 25 mM MES-buffer, 25° C., no growth after 24 h and 72 h; for MIC: Aspergillus brasiliensis, ATCC16404, read-out: MIC [A to D] Aspergillus brasiliensis
Description: as §1, §2, §3

[4] = system: Candida albicans ATCC®10231; experiment: as above; type: cell-based; details: for MIC: Candida albicans
Description: as §1, §2, §3

[5] = system: Escherichia coli, Pseudomonas aeruginosa, Stapyhlococcus aureus, Candida albicans and Aspergillus brasiliensis; experiment: Conservation efficacy test according to DIN EN ISO 11930 in cosmetic formulation, all five test strains; type: cell-based; details: cosmetic formulation (oil-water-emulsion), day 0 to day 28
Protocol: The composition of the formulations was in general as follows (ingredient amounts according to the FDA-code):
In order to confirm the activity against Gram-positive and Gram-negative bacteria, yeasts and moulds, conservation efficacy tests were performed according to DIN EN ISO 11930. The following classical contamination germs were examined: Escherichia coli (Ec in FIGS. 1 and 2) ATCC®8739, Pseudomonas aeruginosa (Pa in FIGS. 1 and 2) ATCC®9027, Stapyhlococcus aureus (Sa in FIGS. 1 and 2) ATCC®6538, Candida albicans (Ca in FIGS. 1 and 2) ATCC®10231 and Aspergillus brasiliensis (Ab in FIGS. 1 and 2) ATCC®16404. Media composition, incubation conditions and dilution procedures were all conducted according to the guidelines.
Data are presented as line graphs. […] The tested contamination germs are identified by different symbols as indicated in the diagrams with the following abbreviations: […]

[6] = system: Escherichia coli ATCC 8739; experiment: Minimal inhibition concentration (MIC), microdilution method adapted from DIN EN ISO 20776-1:2006; type: cell-based; details: for MIC: Escherichia coli
Description: as §1, §2, §3

[7] = system: Pseudomonas aeruginosa; experiment: Combination of substances with perillic acid: reduction of the MIC of perillic acid; type: cell-based; details: test compound combined with perillic acid; experiments as in Example 1
Protocol: as §2
(§4) Activity of perillic acid was comparably low against Gram-negative bacteria. It was thus tested whether the respective MIC could be reduced by combination of perillic acid with selected substances.
(§5) Experiments were performed as described for Example 1 above. A reduction factor was determined, expressing the reduction of the MIC of perillic acid that was achievable by combination with the combination partner. For example, a reduction factor of 2 means that the MIC of perillic acid was reduced by a factor of 2 by combination of perillic acid with the respective activity enhancing substance.

[8] = system: Escherichia coli; experiment: as above; type: cell-based; details: test compound combined with perillic acid; experiments as in Example 1
Protocol: as §2, §4, §5

[9] = system: Stapyhlococcus aureus ATCC®6538; experiment: Minimal inhibition concentration (MIC), microdilution method; type: cell-based, Staphylococcus aureus; details: Mueller-Hinton II Bouillon, 25 mM MES-buffer, 37° C., no growth after 24 h and 72 h; for MIC: Staphylococcus aureus, ATCC6538, read-out: MIC [A to D] Staphylococcus aureus
Description: as §1, §2, §3

[10] = ATCC6633, yeast peptone dextrose, 25 mM MES-buffer, 28° C., no growth after 24 h and 72 h, read-out: MIC [A to D] Bacillus subtilis
[11] = yeast peptone dextrose, 25 mM MES-buffer, 28° C., no growth after 24 h and 72 h
[12] = ATCC8739, Mueller-Hinton II Bouillon, 25 mM MES-buffer, 37° C., no growth after 24 h and 72 h, read-out: MIC [A to D] Escherichia coli
[13] = Mueller-Hinton II Bouillon, 25 mM MES-buffer, 37° C., no growth after 24 h and 72 h
[14] = ATCC10231, yeast peptone dextrose, 25 mM MES-buffer, 28° C., no growth after 24 h and 72 h, read-out: MIC [A to D] Candida albicans

| Structure (SMILES) | MIC [1] [µg/mL] | MIC [2, 10] [µg/mL] | MIC [3] [µg/mL] | MIC [A to D] Candida albicans [4, 11] | MIC [6, 12] [µg/mL] | Reduction factor (reduction of the MIC of perillic acid by combination with the test compound) Pseudomonas aeruginosa [7] | Reduction factor (reduction of the MIC of perillic acid by combination with the test compound) Escherichia coli [8] | MIC [9] [µg/mL] | MIC [A to D] Pseudomonas aeruginosa [1] | MIC [A to D] Aspergillus brasiliensis [3] | MIC [A to D] Staphylococcus aureus [9] | MIC [A to D] Bacillus subtilis [2, 11] | MIC [A to D] Escherichia coli [6, 13] | MIC [4, 14] [µg/mL] | criteria according to the guidelines for an adequate conservation (all five test strains) [5] | MIC ([2]; ATCC6633, read-out: MIC [A to D] Bacillus subtilis) [µg/mL] | MIC ([4]; ATCC10231, read-out: MIC [A to D] Candida albicans) [µg/mL] | MIC ([6]; ATCC8739, read-out: MIC [A to D] Escherichia coli) [µg/mL] |
| --- | --- | --- | --- | --- | --- | --- | --- | --- | --- | --- | --- | --- | --- | --- | --- | --- | --- | --- |
| CC(=O)CCC(=O)O [Levulinic acid] | 1000 to 5000 (≈ 8.61 to 43.1 mM) | 5000 to 10000 (≈ 43.1 to 86.1 mM) | 1000 to 5000 (≈ 8.61 to 43.1 mM) | A (MIC>1% (w/v)) | 1000 to 5000 (≈ 8.61 to 43.1 mM) | 40 | 200 | 1000 to 5000 (≈ 8.61 to 43.1 mM) |  |  |  |  |  |  | does not fulfill the criteria |  |  |  |
| C/C=C/C=C/C(=O)[O-].[K+] [Potassium sorbate] |  |  |  |  |  | 40 | 200 |  | A (MIC>1% (w/v)) | A (MIC>1% (w/v)) | A (MIC>1% (w/v)) |  |  |  |  | 1000 to 5000 | 5000 to 10000 | 5000 to 10000 |
| C=C(C)[C@H]1CC=C(C(=O)O)CC1 [R-Perillic acid] |  |  |  | D (MIC<0.1% (w/v)) |  |  |  |  | B (MIC=0.5-1% (w/v)) | D (MIC<0.1% (w/v)) | D (MIC<0.1% (w/v)) | D (MIC<0.1% (w/v)) | C (MIC=0.1-0.5% (w/v)) |  |  |  |  |  |
| C=C(C)[C@@H]1CC=C(C(=O)O)CC1 [S-Perillic acid] |  |  |  | D (MIC<0.1% (w/v)) |  |  |  |  | B (MIC=0.5-1% (w/v)) | D (MIC<0.1% (w/v)) | D (MIC<0.1% (w/v)) | D (MIC<0.1% (w/v)) | C (MIC=0.1-0.5% (w/v)) |  |  |  |  |  |
| O=C([O-])c1ccccc1.[Na+] [Sodium benzoate] |  |  |  | C (MIC=0.1-0.5% (w/v)) |  |  |  |  | B (MIC=0.5-1% (w/v)) | A (MIC>1% (w/v)) | B (MIC=0.5-1% (w/v)) | D (MIC<0.1% (w/v)) | B (MIC=0.5-1% (w/v)) |  |  |  |  |  |

Now from value to compound, other results behind:

| MIC [1] [µg/mL] | MIC [2, 10] [µg/mL] | MIC [3] [µg/mL] | MIC [A to D] Candida albicans [4, 11] | MIC [6, 12] [µg/mL] | Reduction factor (reduction of the MIC of perillic acid by combination with the test compound) Pseudomonas aeruginosa [7] | Reduction factor (reduction of the MIC of perillic acid by combination with the test compound) Escherichia coli [8] | MIC [9] [µg/mL] | MIC [A to D] Pseudomonas aeruginosa [1] | MIC [A to D] Aspergillus brasiliensis [3] | MIC [A to D] Staphylococcus aureus [9] | MIC [A to D] Bacillus subtilis [2, 11] | MIC [A to D] Escherichia coli [6, 13] | MIC [4, 14] [µg/mL] | Structure (SMILES) | criteria according to the guidelines for an adequate conservation (all five test strains) [5] | MIC ([2]; ATCC6633, read-out: MIC [A to D] Bacillus subtilis) [µg/mL] | MIC ([4]; ATCC10231, read-out: MIC [A to D] Candida albicans) [µg/mL] | MIC ([6]; ATCC8739, read-out: MIC [A to D] Escherichia coli) [µg/mL] |
| --- | --- | --- | --- | --- | --- | --- | --- | --- | --- | --- | --- | --- | --- | --- | --- | --- | --- | --- |
|  |  | 1000 to 5000 (≈ 7.24 to 36.2 mM) |  |  | 80 | 40 |  | D (MIC<0.1% (w/v)) |  | D (MIC<0.1% (w/v)) | D (MIC<0.1% (w/v)) | D (MIC<0.1% (w/v)) | 1000 to 5000 (≈ 7.24 to 36.2 mM) | O=C(O)c1ccccc1O [Salicylic acid] |  |  |  |  |
|  |  |  | D (MIC<0.1% (w/v)) |  |  |  |  | B (MIC=0.5-1% (w/v)) | D (MIC<0.1% (w/v)) | D (MIC<0.1% (w/v)) | D (MIC<0.1% (w/v)) | C (MIC=0.1-0.5% (w/v)) |  | C=C(C)C1CC=C(C(=O)[O-])CC1.[Na+] (stereo not shown) [Sodium perillate] |  |  |  |  |
| 1000 to 5000 (≈ 6.57 to 32.9 mM) | 1000 to 5000 (≈ 6.57 to 32.9 mM) | 1000 to 5000 (≈ 6.57 to 32.9 mM) |  | 1000 to 5000 (≈ 6.57 to 32.9 mM) |  |  | 1000 to 5000 (≈ 6.57 to 32.9 mM) |  |  |  |  |  | 5000 to 10000 (≈ 32.9 to 65.7 mM) | COc1ccc(C(=O)O)cc1 [p-Anisic acid] |  |  |  |  |
